Source: PubChem BioAssay (NCI)
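48-hour exposure; five concentrations; linearly interpolated endpoints. GI50 marks 50% less growth. TGI: concentration producing complete growth inhibition.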

How the values were obtained:
Assay in all cases: NCI-60 cell line screen, 48 h
SF-295 CNS = tested on: SF-295 CNS
TK-10 renal = tested on: TK-10 renal
PC-3 prostate = tested on: PC-3 prostate
MOLT-4 leukemia = tested on: MOLT-4 leukemia
HCC-2998 colon = tested on: HCC-2998 colon
RPMI-8226 leukemia = tested on: RPMI-8226 leukemia
HCT-15 colon = tested on: HCT-15 colon
IGROV1 ovarian = tested on: IGROV1 ovarian
MDA-MB-231 breast = tested on: MDA-MB-231 breast
SNB-19 CNS = tested on: SNB-19 CNS
RXF 393 renal = tested on: RXF 393 renal
K-562 leukemia = tested on: K-562 leukemia
UACC-62 melanoma = tested on: UACC-62 melanoma
EKVX NSCLC = tested on: EKVX NSCLC
BT-549 breast = tested on: BT-549 breast
HS 578T breast = tested on: HS 578T breast
SK-OV-3 ovarian = tested on: SK-OV-3 ovarian
OVCAR-3 ovarian = tested on: OVCAR-3 ovarian
HT29 colon = tested on: HT29 colon
T-47D breast = tested on: T-47D breast
SF-539 CNS = tested on: SF-539 CNS
A498 renal = tested on: A498 renal
NCI-H23 lung = tested on: NCI-H23 lung
KM12 colon = tested on: KM12 colon
NCI/ADR-RES ovarian = tested on: NCI/ADR-RES ovarian
MDA-MB-435 = tested on: MDA-MB-435
SNB-75 CNS = tested on: SNB-75 CNS
NCI-H460 lung = tested on: NCI-H460 lung
M14 melanoma = tested on: M14 melanoma
UO-31 renal = tested on: UO-31 renal
SK-MEL-5 melanoma = tested on: SK-MEL-5 melanoma
COLO 205 colon = tested on: COLO 205 colon
CCRF-CEM leukemia = tested on: CCRF-CEM leukemia
MALME-3M melanoma = tested on: MALME-3M melanoma
786-0 renal = tested on: 786-0 renal
HOP-62 NSCLC = tested on: HOP-62 NSCLC
U251 CNS = tested on: U251 CNS
OVCAR-5 ovarian = tested on: OVCAR-5 ovarian
CAKI-1 renal = tested on: CAKI-1 renal
ACHN renal = tested on: ACHN renal
LOX IMVI melanoma = tested on: LOX IMVI melanoma
DU-145 prostate = tested on: DU-145 prostate
SN12C renal = tested on: SN12C renal
SW-620 colon = tested on: SW-620 colon
SF-268 CNS = tested on: SF-268 CNS
HOP-92 NSCLC = tested on: HOP-92 NSCLC
SK-MEL-28 melanoma = tested on: SK-MEL-28 melanoma
UACC-257 melanoma = tested on: UACC-257 melanoma
A549 NSCLC = tested on: A549 NSCLC
SK-MEL-2 melanoma = tested on: SK-MEL-2 melanoma
HL-60(TB) leukemia = tested on: HL-60(TB) leukemia
NCI-H226 lung = tested on: NCI-H226 lung
HCT-116 colon = tested on: HCT-116 colon
OVCAR-8 ovarian = tested on: OVCAR-8 ovarian
MCF7 breast = tested on: MCF7 breast
NCI-H522 lung = tested on: NCI-H522 lung
OVCAR-4 ovarian = tested on: OVCAR-4 ovarian
SR leukemia = tested on: SR leukemia

Molecule COc1cccc(Sc2ccc([N+](=O)[O-])c3no[n+]([O-])c23)c1 has a GI50 (SF-295 CNS) of 24.5 µM, a TGI (SF-295 CNS) of 62.8 µM and a GI50 (TK-10 renal) of 10.9 µM. It also gave a TGI (TK-10 renal) of 24.7 µM, a GI50 (PC-3 prostate) of 16.9 µM and a TGI (PC-3 prostate) greater than 54.5 µM. For the same molecule, the GI50 (MOLT-4 leukemia) was 4.27 µM, the TGI (MOLT-4 leukemia) was 16.5 µM and the GI50 (HCC-2998 colon) was 22.3 µM. The TGI (HCC-2998 colon) was 46.3 µM, the GI50 (RPMI-8226 leukemia) was 3.67 µM and the TGI (RPMI-8226 leukemia) was 21 µM. The GI50 (HCT-15 colon) was 7.82 µM, the TGI (HCT-15 colon) was 23.1 µM and the GI50 (IGROV1 ovarian) was 5.63 µM. The TGI (IGROV1 ovarian) was 20.8 µM, the GI50 (MDA-MB-231 breast) was 11.2 µM and the TGI (MDA-MB-231 breast) was 28 µM. It also gave a GI50 (SNB-19 CNS) of 35 µM, a TGI (SNB-19 CNS) greater than 88.3 µM and a GI50 (RXF 393 renal) of 8.99 µM. The TGI (RXF 393 renal) was 23.8 µM, the GI50 (K-562 leukemia) was 3.66 µM and the TGI (K-562 leukemia) was 13 µM. The GI50 (UACC-62 melanoma) was 13.7 µM, the TGI (UACC-62 melanoma) was 36 µM and the GI50 (EKVX NSCLC) was 14.8 µM. It also gave a TGI (EKVX NSCLC) of 39.5 µM, a GI50 (BT-549 breast) of 8.06 µM and a TGI (BT-549 breast) of 22.1 µM. The GI50 (HS 578T breast) was 16.2 µM, the TGI (HS 578T breast) was 61.7 µM and the GI50 (SK-OV-3 ovarian) was 29.8 µM. It also gave a TGI (SK-OV-3 ovarian) greater than 77.7 µM, a GI50 (OVCAR-3 ovarian) of 2.83 µM and a TGI (OVCAR-3 ovarian) of 7.48 µM. The GI50 (HT29 colon) was 9.8 µM, the TGI (HT29 colon) was greater than 55.6 µM and the GI50 (T-47D breast) was 3.36 µM. The TGI (T-47D breast) was 14.4 µM, the GI50 (SF-539 CNS) was 14.7 µM and the TGI (SF-539 CNS) was 28.1 µM. For the same molecule, the GI50 (A498 renal) was 15.7 µM, the TGI (A498 renal) was 34.6 µM and the GI50 (NCI-H23 lung) was 7.14 µM. It also gave a TGI (NCI-H23 lung) of 25 µM, a GI50 (KM12 colon) of 17.2 µM and a TGI (KM12 colon) of 33.5 µM. The GI50 (NCI/ADR-RES ovarian) was 5.97 µM, the TGI (NCI/ADR-RES ovarian) was 19.1 µM and the GI50 (MDA-MB-435) was 13.4 µM. The TGI (MDA-MB-435) was 43.1 µM, the GI50 (SNB-75 CNS) was 13.9 µM and the TGI (SNB-75 CNS) was 39.4 µM. For the same molecule, the GI50 (NCI-H460 lung) was 18.7 µM, the TGI (NCI-H460 lung) was 40.8 µM and the GI50 (M14 melanoma) was 14.3 µM. The TGI (M14 melanoma) was 33.9 µM, the GI50 (UO-31 renal) was 2.27 µM and the TGI (UO-31 renal) was 7.74 µM. It also gave a GI50 (SK-MEL-5 melanoma) of 15.1 µM, a TGI (SK-MEL-5 melanoma) of 29.5 µM and a GI50 (COLO 205 colon) of 2.49 µM. The TGI (COLO 205 colon) was 7.31 µM, the GI50 (CCRF-CEM leukemia) was 2.6 µM and the TGI (CCRF-CEM leukemia) was 8.14 µM. For the same molecule, the GI50 (MALME-3M melanoma) was 4.67 µM, the TGI (MALME-3M melanoma) was 15 µM and the GI50 (786-0 renal) was 19.5 µM. The TGI (786-0 renal) was 34.8 µM, the GI50 (HOP-62 NSCLC) was 25.2 µM and the TGI (HOP-62 NSCLC) was 50 µM. It also gave a GI50 (U251 CNS) of 13.1 µM, a TGI (U251 CNS) of 30.3 µM and a GI50 (OVCAR-5 ovarian) of 8.31 µM. The TGI (OVCAR-5 ovarian) was 20.2 µM, the GI50 (CAKI-1 renal) was 10.5 µM and the TGI (CAKI-1 renal) was 24.1 µM. For the same molecule, the GI50 (ACHN renal) was 2.84 µM, the TGI (ACHN renal) was 8.78 µM and the GI50 (LOX IMVI melanoma) was 3.38 µM. It also gave a TGI (LOX IMVI melanoma) of 11.5 µM, a GI50 (DU-145 prostate) of 11.3 µM and a TGI (DU-145 prostate) of 24.4 µM. The GI50 (SN12C renal) was 16.9 µM, the TGI (SN12C renal) was 46.8 µM and the GI50 (SW-620 colon) was 2.5 µM. It also gave a TGI (SW-620 colon) of 6.14 µM, a GI50 (SF-268 CNS) of 12.5 µM and a TGI (SF-268 CNS) of 30 µM. For the same molecule, the GI50 (HOP-92 NSCLC) was 15.5 µM, the TGI (HOP-92 NSCLC) was 32.7 µM and the GI50 (SK-MEL-28 melanoma) was 6.52 µM. For the same molecule, the TGI (SK-MEL-28 melanoma) was 14 µM, the GI50 (UACC-257 melanoma) was 14 µM and the TGI (UACC-257 melanoma) was 29.9 µM. The GI50 (A549 NSCLC) was 36.1 µM, the TGI (A549 NSCLC) was greater than 100 µM and the GI50 (SK-MEL-2 melanoma) was 20.9 µM. For the same molecule, the TGI (SK-MEL-2 melanoma) was 45.2 µM, the GI50 (HL-60(TB) leukemia) was 5.12 µM and the TGI (HL-60(TB) leukemia) was 14.6 µM. The GI50 (NCI-H226 lung) was 18.2 µM, the TGI (NCI-H226 lung) was 53.5 µM and the GI50 (HCT-116 colon) was 3.7 µM. The TGI (HCT-116 colon) was 14.4 µM, the GI50 (OVCAR-8 ovarian) was 6.22 µM and the TGI (OVCAR-8 ovarian) was 24.8 µM. For the same molecule, the GI50 (MCF7 breast) was 4.87 µM, the TGI (MCF7 breast) was 20.6 µM and the GI50 (NCI-H522 lung) was 1.98 µM. For the same molecule, the TGI (NCI-H522 lung) was 3.93 µM, the GI50 (OVCAR-4 ovarian) was 10.1 µM and the TGI (OVCAR-4 ovarian) was 27 µM.

In the case of CC(C)(C)c1ccc(O)c(C(c2ccc([N+](=O)[O-])cc2)c2cc(C(C)(C)C)ccc2O)c1, the TGI (SF-295 CNS) is reported as 3.64 µM, the TGI (TK-10 renal) is reported as 7.39 µM and the TGI (PC-3 prostate) is reported as 3.33 µM. For the same molecule, the TGI (MOLT-4 leukemia) was 5.14 µM, the TGI (HCC-2998 colon) was 3.44 µM and the TGI (RPMI-8226 leukemia) was 4.98 µM. It also gave a TGI (HCT-15 colon) of 4.27 µM, a TGI (IGROV1 ovarian) of 4.37 µM and a TGI (MDA-MB-231 breast) of 3.78 µM. For the same molecule, the TGI (SNB-19 CNS) was 5.36 µM, the TGI (RXF 393 renal) was 3.66 µM and the TGI (K-562 leukemia) was 7.35 µM. It also gave a TGI (UACC-62 melanoma) of 3.2 µM, a TGI (EKVX NSCLC) of 3.92 µM and a TGI (HS 578T breast) of 18.7 µM. The TGI (SK-OV-3 ovarian) was 4.15 µM, the TGI (OVCAR-3 ovarian) was 3.25 µM and the TGI (HT29 colon) was 4.47 µM. The TGI (T-47D breast) was 8.72 µM, the TGI (SF-539 CNS) was 3.46 µM and the TGI (NCI-H23 lung) was 4.23 µM. For the same molecule, the TGI (NCI/ADR-RES ovarian) was 7.72 µM, the TGI (SNB-75 CNS) was 3.9 µM and the TGI (M14 melanoma) was 3.16 µM. The TGI (UO-31 renal) was 3.52 µM, the TGI (COLO 205 colon) was 5.8 µM and the TGI (CCRF-CEM leukemia) was 7.53 µM. The TGI (786-0 renal) was 3.8 µM, the TGI (HOP-62 NSCLC) was 3.39 µM and the TGI (SR leukemia) was 5.47 µM. For the same molecule, the TGI (U251 CNS) was 4.81 µM, the TGI (OVCAR-5 ovarian) was 3.25 µM and the TGI (CAKI-1 renal) was 2.88 µM. The TGI (ACHN renal) was 3.3 µM, the TGI (DU-145 prostate) was 6.14 µM and the TGI (SN12C renal) was 4.02 µM. For the same molecule, the TGI (SW-620 colon) was 4.71 µM, the TGI (SF-268 CNS) was 3.16 µM and the TGI (HOP-92 NSCLC) was 3.7 µM. The TGI (SK-MEL-28 melanoma) was 3.72 µM, the TGI (UACC-257 melanoma) was 3.41 µM and the TGI (A549 NSCLC) was 3.77 µM. It also gave a TGI (SK-MEL-2 melanoma) of 3.36 µM, a TGI (HL-60(TB) leukemia) of 3.95 µM and a TGI (NCI-H226 lung) of 3.51 µM. The TGI (HCT-116 colon) was 5.06 µM, the TGI (OVCAR-8 ovarian) was 7.82 µM and the TGI (MCF7 breast) was 3.83 µM. For the same molecule, the TGI (NCI-H522 lung) was 4.32 µM and the TGI (OVCAR-4 ovarian) was 3.91 µM.
